From patent US5039808A, “Therapeutically active cyclopropyl substituted compound” (priority 1988, dated 1991)

Assays:
[1] = Bioavailability in the dog, AUC method; format: in vivo, Harrier dogs of either sex; settings: id vs iv, plasma up to 3 h, extrapolated to infinite time, read-out: Bioavailability measured by the AUC-method F%, Dog
Protocol: Bioavailability is assessed by calculating the quotient between the area under plasma concentration (AUC) curve following introduodenal (id) administration and intravenous (iv) administration from the rat or the dog. Low, therapeutically relevant doses, were used. This method is scientifically recognized as valid for assessing bioavailability (see for instance: M. Rowland and T. N. Tozer, Clinical Pharmacokinetics, 2nd ed., Lea & Febiger, London 1989, p 42).
(§1) Harrier dogs of either sex were used. They were equipped with a duodenal fistula for the administration of test compounds or vehicle and a cannulated ventricular fistula for the collection of gastric secretions.
Blood samples for the analysis of test compound concentration in plasma were taken at intervals up to 3 h after dosing. Plasma was separated and frozen within 30 min after collection. AUC (area under the plasma concentration - time curve), extrapolated to infinite time, was calculated by the linear trapezoidal rule. The systemic bioavailability (F%) after id administration was calculated as 100 × (AUCid /AUCiv).

[2] = Rough Screening Model for bioavailability: ratio ED50 iv/ED50 id of acid secretion inhibition in the rat; parameters: species or system Male rats of the Sprague-Dawley strain; settings: in vivo, ratio of ED50 values, read-out: "Bioavailability" measured by the Rough Screening Model, Rat ED50 iv/ED50 id
Protocol: Since the bioavailability model described above is time and labour intensive, and requires a large number of plasma analyses, also a rough screening model, based on relative potencies to inhibit acid secretion, has been used (see for instance: A. Goth, Medical Pharmacology, 7the ed., C. V. Mosby Company, Saint Louis 1974, p 19). Thus, the ratio (called "Bioavailability" in Table 3) between the ED50 at intravenous administration and the ED50 at intraduodenal administration was calculated.
Before secretory tests, the animals were deprived of food but not water for 20 h. The stomach was repeatedly washed through the gastric cannula, and 6 ml of Ringer-Glucose given s.c. Acid secretion was stimulated with a infusion during 3.5 h (1.2ml/h, s.c.) of pentagastrin and carbachol (20 and 110 nmol/kg h, respectively), during which time gastric secretions were collected in 30-min fractions. […] Gastric juice samples were titrated to pH 7.0 with NaOH, 0.1 mol/L, and acid output calculated as the product of titrant volume and concentration. […] The acid output during the periods after administration of test substances or vehicle were expressed as fractional responses, setting the acid output in the 30-min period preceding administration to 1.0. Percentage inhibition was calculated from the fractional responses elicited by test compound and vehicle. […]

gastric acid secretion [3] = assay: Inhibition of Gastric Acid Secretion in the Conscious Dog (histamine stimulated); format: in vivo, Harrier dogs of either sex
Protocol: (§2) The potency for inhibition of acid secretion has been measured in the male rat and the dog, both intravenously and intraduodenally. When it comes to relevance of the animal test data for potency of a given compound in man for the present type of compounds, it is believed that potency in man will correspond to a level somewhere between what is measured in the male rat and what is measured in the dog.
as §1
Before secretory tests the animals were fasted for about 18 h but water was freely allowed. Gastric acid secretion was stimulated by a 4 h infusion of histamine dihydrochloride (12 ml/h) at a dose producing about 80% of the individual maximal secretory response, and gastric juice collected in consecutive 30-min fractions. Test substance or vehicle was given id or iv 1 h after starting the histamine infusion, in a volume of 0.5 ml/kg body weight. The acidity of the gastric juice samples were determined by titration to pH 7.0, and the acid output calculated. The acid output in the collection periods after administration of test substance or vehicle were expressed as fractional responses, setting the acid output in the fraction preceding administration to 1.0. Percentage inhibition was calculated from fractional responses elicited by test compound and vehicle. ED50 -values were obtained by graphical interpolation on log dose - response curves, or estimated from single-dose experiments under the assumption of the same slope of the dose-response curve for all test compounds. All results reported are based on acid output 2 h after dosing.

[4] = Bioavailability in the Male Rat, AUC method; format: in vivo, Male adult rats of the Sprague-Dawley strain; settings: blood, 4 umol/kg, 4 μmol/kg id and iv, up to 4 h, extrapolated to infinity, read-out: Bioavailability measured by the AUC-method F%, Rat
Text: The results from tests on two different animal species, rat and dog, vary in regard to measured level of bioavailability for the same compound. We believe that the rat is the more relevant species for bioavailability testing. This is based on our belief that liver metabolism has the most predominant impact upon bioavailability, and that the liver metabolic pattern in man for this type of compounds is quite similar to that of the male rat (more so than of the female rat and the dog). Moreover, test results of bioavailability in the male rat will tend to give a broader "spread" compared with the test results in the dog, and thus the male rat model will give more clear differences in bioavailability between different compounds. […]
Bioavailability is assessed by calculating the quotient between the area under plasma concentration (AUC) curve following introduodenal (id) administration and intravenous (iv) administration from the rat or the dog. […]
The area under the blood concentration vs time curve, AUC, was determined by the linear trapezoidal rule and extrapolated to infinity by dividing the last determined blood concentration by the elimination rate constant in the terminal phase. The systemic bioavailability (F%) following intraduodenal administration was calculated as [formula]

gastric acid secretion [5] = assay: Inhibition of Gastric Acid Secretion in the Conscious Male Rat (pentagastrin and carbachol stimulated); format: in vivo, Male rats of the Sprague-Dawley strain; settings: second hour after administration
Protocol: as §2
Male rats of the Sprague-Dawley strain were used. They were equipped with cannulated fistulae in the stomach (lumen) and the upper part of the duodenum, for collection of gastric secretions and administration of test substances, respectively. A fourteen days recovery period after surgery was allowed before testing commenced.
Before secretory tests, the animals were deprived of food but not water for 20 h. The stomach was repeatedly washed through the gastric cannula, and 6 ml of Ringer-Glucose given s.c. Acid secretion was stimulated with a infusion during 3.5 h (1.2ml/h, s.c.) of pentagastrin and carbachol (20 and 110 nmol/kg h, respectively), during which time gastric secretions were collected in 30-min fractions. Test substances or vehicle were given iv or id at 90 min after starting the stimulation, in a volume of 1 ml/kg. Gastric juice samples were titrated to pH 7.0 with NaOH, 0.1 mol/L, and acid output calculated as the product of titrant volume and concentration. Further calculations were based on group mean responses from 4-5 rats. The acid output during the periods after administration of test substances or vehicle were expressed as fractional responses, setting the acid output in the 30-min period preceding administration to 1.0. Percentage inhibition was calculated from the fractional responses elicited by test compound and vehicle. ED50 -values were obtained from graphical interpolation on log dose-response curves, or estimated from single-dose experiments assuming a similar slope for all dose-response curves. An estimation of the bioavailability was obtained by calculating the ratio ED50 iv/ED50 id. The results reported are based on gastric acid secretion during the second hour after drug/vehicle administration.

[6] = Chemical stability in aqueous buffer solution; format: physicochemical; settings: low concentration
Protocol: The chemical stability of various compounds of the invention has been followed kinetically at low concentration at 37°C. in aqueous buffer solution at different pH values. The results in Table 3 show the half life (t 1/2) at pH 7, that is the time period after which half the amount of the original compound remains unchanged.

Row | bioavailability [1] | bioavailability [2] | bioavailability [4] | Chemical stability at pH 7, half-life (t 1/2) ([6]; 37°C) | half-life ([6]; pH 7, 37°C, read-out: Chemical stability at pH 7, half-life (t 1/2) (converted)) | SMILES | ED50 (gastric acid secretion [3]; Canis lupus familiaris, dog, route id, acid output 2 h after dosing) | inhibition of acid secretion (gastric acid secretion [3]; Dog 1, 1 μmol/kg, iv) | inhibition of acid secretion (in words) (gastric acid secretion [3]; Dog 2, 1 μmol/kg, iv) | inhibition of acid secretion (gastric acid secretion [3]; Dog 3, 2 μmol/kg, iv) | ED50 (gastric acid secretion [5]; route id, read-out: Inhibition of acid secretion, Rat ED50, id) | ED50 (gastric acid secretion [5]; route iv, read-out: Inhibition of acid secretion, Rat ED50, iv) | inhibition of acid secretion (gastric acid secretion [3]; Dog 4, 3 μmol/kg, id (footnote to id column)) | inhibition of acid secretion (gastric acid secretion [3]; Dog 5, 3 μmol/kg, id (footnote to id column)) | Inhibition of acid secretion, Rat ED50, id (gastric acid secretion [5]; route id) | Inhibition of acid secretion, Rat ED50, iv (gastric acid secretion [5]; route iv)
1 | 80% | 55% | 82% | 23 h | 23 h | [O-][S+](Cc1cc(OCC2CC2)ccn1)c1nc2cc(F)ccc2[nH]1 (stereo not drawn) [Example 1, 5-fluoro-2-[[(4-cyclopropyl-methoxy-2-pyridinyl)methyl]sulfinyl]-1H-benzimidazole] | 1 µmol/kg | 35% | no effect | 98% | 2.2 µmol/kg | 1.2 µmol/kg |  |  |  | 
2 |  |  |  |  |  | CC(C)Oc1ccnc(C[S+]([O-])c2nc3cc(F)ccc3[nH]2)c1 (stereo not drawn) [Ref., 5-fluoro-2-[[(4-isopropoxy-2-pyridinyl)-methyl]sulfinyl]-1H-benzimidazole, reference compound] |  |  |  |  |  |  | 95% | 98% | 4.0 µmol/kg | 1.8 µmol/kg
